# Test results taken from PubChem BioAssay (NCI).
#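 Each compound was tested at five concentrations against cells in 96-well plates for 48 hours. GI50 is the concentration that inhibits growth by half. TGI is the concentration that stops growth completely.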
# What was measured:
# Assay in all cases: NCI anticancer screen, dose series, 48 h
# DU-145 prostate = system: DU-145 prostate
# HOP-92 NSCLC = system: HOP-92 NSCLC
# HS 578T breast = system: HS 578T breast
# MOLT-4 leukemia = system: MOLT-4 leukemia
# RXF 393 renal = system: RXF 393 renal
# SF-539 CNS = system: SF-539 CNS
# SK-OV-3 ovarian = system: SK-OV-3 ovarian
# UO-31 renal = system: UO-31 renal
# COLO 205 colon = system: COLO 205 colon
# MALME-3M melanoma = system: MALME-3M melanoma
Structure (SMILES),GI50 (DU-145 prostate) [µM],TGI (DU-145 prostate) [µM],GI50 (HOP-92 NSCLC) [µM],TGI (HOP-92 NSCLC) [µM],GI50 (HS 578T breast) [µM],TGI (HS 578T breast) [µM],GI50 (MOLT-4 leukemia) [µM],TGI (MOLT-4 leukemia) [µM],GI50 (RXF 393 renal) [µM],TGI (RXF 393 renal) [µM],GI50 (SF-539 CNS) [µM],TGI (SF-539 CNS) [µM],GI50 (SK-OV-3 ovarian) [µM],TGI (SK-OV-3 ovarian) [µM],GI50 (UO-31 renal) [µM],TGI (UO-31 renal) [µM],TGI (COLO 205 colon) [µM],GI50 (COLO 205 colon) [µM],GI50 (MALME-3M melanoma) [µM],TGI (MALME-3M melanoma) [µM]
CCCCS(=O)(=O)c1cc(Nc2ccc(O)c3c2C(=O)c2ccccc2C3=O)ccc1C,5.01,> 100,> 100,> 100,75.5,> 100,> 100,> 100,14.6,> 100,> 100,> 100,> 100,> 100,> 100,> 100,–,–,–,–
BrCc1ccc2ccc3ccc(CBr)nc3c2n1,–,21.7,–,4.04,–,71.3,–,4.66,–,4.69,–,11,–,–,–,4.57,4.3,–,–,–
COc1ccc(/C=C(\C#N)c2cc(OC)c(OC)c(OC)c2)cc1,–,–,0.277,25.1,0.0359,> 100,0.0391,6.85,< 0.0141,> 90.7,0.0199,> 100,< 0.0138,0.221,0.0389,58.6,0.0251,0.011,21.3,> 100
Nc1ccccc1SC(/C=C/NNC1=NC(c2ccccc2)C(c2ccccc2)=NN1)c1ccccc1 (stereo not given),–,–,–,22.1,–,–,–,15.7,–,27.1,–,25.9,–,44.4,–,18.4,29,–,–,30.1
O=C(Nc1ccccc1)N1C(c2ccccc2)=N[C@@H](c2ccccc2)[C@@H]1c1ccccc1,–,–,–,53.3,–,–,–,44.5,–,34.2,–,33.7,–,–,–,30.6,28.8,–,–,34.7
O=c1cc(-c2ccccc2)oc2cc(OCCCCCCCCCCOc3ccc4c(=O)cc(-c5ccccc5)oc4c3)ccc12,–,–,–,> 100,–,–,–,> 100,–,–,–,> 100,–,> 100,–,–,> 100,–,–,> 100
COc1c(OC2OC(C)C(O)C(O)C2O)c(OC)c2oc(-c3ccc(O)cc3)cc(=O)c2c1O (stereo not given),24.1,52.8,–,–,29.8,> 100,15.4,> 100,23.8,66.5,34.3,90.5,86.3,> 100,22.8,> 100,> 100,29.3,34.2,> 100
O=C(NNC(=O)c1ccncc1)C(=O)Nc1cc(Cl)c(Cl)cc1Cl,–,–,–,> 100,–,> 100,–,> 100,–,> 100,–,> 100,–,> 100,–,> 100,–,–,–,> 100
CSCc1ncc(-c2ccc(C(F)(F)F)cc2)c(NC2CCCCCC2)n1,> 10,> 10,–,–,–,–,> 10,> 10,> 10,> 10,> 10,> 10,> 10,> 10,> 10,> 10,> 10,> 10,> 10,> 10
